Test results taken from patent US9963462B2 (priority 2015, dated 2018).

Tests used:
[1] = test system: BH4 levels in SK-N-BE (2) cells; assay: SKN-N-BE (2) cellular assay, BH4 levels by LC-MS; assay type: cell-based; details: Homo sapiens, SKNBE2, read-out: SK-N-BE(2) IC50, SK-N-BE (2) cells, BH4 levels by LC-MS
Description: SKN-N-BE(2) Cellular Assay: SK-N-BE (2) cells were seeded in sterile, 96-well plates and incubated for 12-24 hours at 37° C. with 5% CO2 supply. Media was removed and fresh DMEM/F-12 media (containing Glutamine & Pen/Strep but no FBS) was added. Compounds (at different concentrations) were added to different wells. The plates were then incubated for 6-48 hours at 37° C. with 5% CO2 supply. Plates were then centrifuged and the supernatant was removed. The plates were then optionally washed once with PBS. They were then sealed and stored at −80° C. or immediately used. The cells were lysed and the level of BH4 was assessed by LC-MS.
Compounds were assayed for SPR inhibitory activity using a SKN-N-BE (2) cellular assay according to the following procedure. SK-N-BE (2) cells were seeded in sterile, 96-well plates and incubated for 12-24 hours at 37° C. with 5% CO2 supply. Media was removed and fresh DMEM/F-12 media (containing Glutamine & Pen/Strep but no FBS) was added. Compounds (at different concentrations) were added to different wells. The plates were then incubated for 6-48 hours at 37° C. with 5% CO2 supply. Plates were then centrifuged and the supernatant was removed. The plates were then optionally washed once with PBS. They were then sealed and stored at −80° C. or immediately used in the next step. The cells were lysed and the levels of BH4 were assessed by LC-MS.

[2] = biological target: SNAP-hSPR (sepiapterin reductase, SPR) (Homo sapiens, UniProt P35270); assay: biochemical; assay type: binding; details: terbium labelled SNAP-hSPR / SSZ labelled SNAP-EGFP; read-out: hTR-FRET IC50
SNAP-hSPR (sepiapterin reductase, SPR), sequence (P35270 whole entry): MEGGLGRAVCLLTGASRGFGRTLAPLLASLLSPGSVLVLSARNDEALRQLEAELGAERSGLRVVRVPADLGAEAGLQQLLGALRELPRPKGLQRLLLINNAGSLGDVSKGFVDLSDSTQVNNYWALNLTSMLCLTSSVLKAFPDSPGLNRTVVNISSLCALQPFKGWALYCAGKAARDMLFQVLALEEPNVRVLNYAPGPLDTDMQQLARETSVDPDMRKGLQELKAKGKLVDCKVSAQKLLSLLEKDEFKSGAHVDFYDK

| Structure (SMILES) | IC50 [1] [nM] | IC50 [2] [nM] |
| --- | --- | --- |
| Cc1cc(=O)[nH]c(-n2ncc(C(=O)NC3CCCC3)c2C)n1 [Q-0280] | 16000 | 60 |
| Cc1cc2nc(-n3ncc(C(=O)N4CCC(C(F)(F)F)CC4)c3C)[nH]c(=O)c2s1 [Q-0409] | 25000 | 200 |
| Cc1c(C(=O)N2CC(C(F)(F)F)CC(C(F)(F)F)C2)cnn1-c1nc2ccsc2c(=O)[nH]1 (stereo not shown) [Q-0406] | 2000 | 50 |
| CC(C)c1c(C(=O)N2CCC(C(F)(F)F)CC2)cnn1-c1nc2c(c(=O)[nH]1)CCC2 [Q-0445] | 900 | 10 |
| Cc1c(C(=O)N2CC3CN(C(=O)OC(C)(C)C)CC3C2)cnn1-c1nn2cccc2c(=O)[nH]1 (stereo not shown) [Q-0809] | 900 | 6 |
| Cc1c(C(=O)N2CCC[C@H](C(F)(F)F)C2)cnn1-c1nc2c(c(=O)[nH]1)CCC2 (single isomer, unassigned) [Q-0475] | 300 | 5 |
| Cc1c(C(=O)N2CCC(c3cccc4[nH]ccc34)CC2)cnn1-c1nc2c(c(=O)[nH]1)CCC2 [Q-0615] | 19 | 3 |
| Cc1cc(=O)[nH]c(-n2ncc(C(=O)N3CCc4ccc(S(=O)(=O)N5CCOCC5)cc4C3)c2C)n1 [Q-0327] | 12000 | 7 |
| Cc1cc(=O)[nH]c(-n2ncc(C(=O)N3CCc4ccccc4C3)c2C(F)(F)F)n1 [Q-0342] | 2400 | 10 |
| O=C(c1ccn(-c2nn3cccc3c(=O)[nH]2)c1)N1CCC(C(F)(F)F)CC1 [Q-0738] | 100 | 1 |
| Cc1c(C(=O)N2CCC(c3ccccc3)CC2)cnn1-c1nc2[nH]ccc2c(=O)[nH]1 [Q-0488] | 1200 | 20 |
| Cc1c(C(=O)N(CCC#N)C2CCCCC2)cnn1-c1nc2c(c(=O)[nH]1)CCC2 [Q-0487] | 600 | 3 |
| O=C(c1ccn(-c2nc3c(c(=O)[nH]2)CCC3)c1)N1CCC(C(F)(F)F)CC1 [Q-0732] | 100 | 1 |
| CCN(Cc1ccccc1)C(=O)c1cnn(-c2nc3c(c(=O)[nH]2)CCC3)c1C [Q-0490] | 100 | 7 |
| Cc1c(C(=O)N2CC(c3ccccc3)C2)cnn1-c1nc2c(c(=O)[nH]1)CCC2 [Q-0479] | 100 | 6 |
| O=C(c1cnn(-c2nc3sccc3c(=O)[nH]2)c1)N1CCC(CC(F)(F)F)CC1 [Q-0752] | 500 | 4 |
| Cc1c(C(=O)N2CC3CC(F)(F)CC3C2)cnn1-c1nn2cccc2c(=O)[nH]1 (stereo not shown) [Q-0796] | 200 | 1 |
| Cc1c(C(=O)N2CC(CNC(=O)OC(C)(C)C)C2)cnn1-c1nc2c(c(=O)[nH]1)CCC2 [Q-0568] | 200 | 6 |
| Cc1cc(=O)[nH]c(-n2ncc(C(=O)N3CCOCC3)c2C(F)F)n1 [Q-0349] | 57000 | 30 |
| Cc1c(C(=O)N2CC[C@H]3CCCC[C@@H]3C2)cnn1-c1nc2ccsc2c(=O)[nH]1 [Q-0408] | 75 | 10 |
| Cc1cc(=O)[nH]c(-n2nc(C)c(CCC(=O)Nc3ccc(Cl)cc3)c2C)n1 [Q-0009] | 22000 | 300 |
| CCC1(C#N)CCN(C(=O)c2cnn(-c3nc4ccsc4c(=O)[nH]3)c2C)CC1 [Q-0562] | 200 | 4 |
| Cc1c(C(=O)N2CCC[C@@H]2C(=O)OCc2ccccc2)cnn1-c1nc2c(c(=O)[nH]1)CCC2 [Q-0496] | 400 | 7 |
| Cc1cc(=O)[nH]c(-n2cc(C)c(C(=O)N3CCc4ccccc4C3)n2)n1 [Q-0366] | 128000 | 400 |

| Structure (SMILES) | IC50 [1] [nM] | IC50 [2] [nM] |
| --- | --- | --- |
| Cc1c(C(=O)N2CCC(C#N)(c3ccccc3)CC2)cnn1-c1nn2cccc2c(=O)[nH]1 [Q-0599] | 12 | 2 |
| Cc1c(C(=O)N2CCC(c3nc4ccccc4s3)CC2)cnn1-c1nc2ccsc2c(=O)[nH]1 [Q-0559] | 38 | 7 |
| Cc1c(C(=O)N2CC3CC3(O)C2)cnn1-c1nc2ccsc2c(=O)[nH]1 (stereo not shown) [Q-0621] | 5200 | 20 |
| Cc1c(C(=O)N2CCN(c3ccc(C#N)cn3)CC2)cnn1-c1nn2cccc2c(=O)[nH]1 [Q-0845] | 400 | 3 |
| Cc1c(C(=O)N2CCC(CC(F)(F)F)CC2)cnn1-c1nc2sccc2c(=O)[nH]1 [Q-0724] | 200 | 2 |
| Cc1c(C(=O)N2CCN(c3cnccn3)CC2)cnn1-c1nn2cccc2c(=O)[nH]1 [Q-0831] | 400 | 2 |
| Cc1c(C(=O)N2C3CCC2CC(O)(c2ccccc2)C3)cnn1-c1nc2c(c(=O)[nH]1)CCC2 (stereo not shown) [Q-0509] | 68 | 3 |
| Cc1cc(=O)[nH]c(-n2ncc(C(=O)N3CCc4[nH]ncc4C3)c2C)n1 [Q-0345] | 78000 | 10 |
| Cc1c(C(=O)N2CCCC(C(F)(F)F)C2)cnn1-c1nc2c(c(=O)[nH]1)CCC2 (stereo not shown) [Q-0450] | 300 | 5 |
| Cc1cc(=O)[nH]c(-n2cc(C(=O)N3CCC(C(F)(F)F)CC3)c(C)n2)n1 [Q-0432, 6-methyl-2-{3-methyl-4-[4-(trifluoromethyl)piperidine-1-carbonyl]-1H-pyrazol-1-yl}-3,4-dihydropyrimidin-4-one] | 6500 | 40 |
| Cc1c(C(=O)N2CCc3ccccc3C2)cnn1-c1nc2ccccc2c(=O)[nH]1 [Q-0323] | 35000 | 300 |
| Cc1c(C(=O)N2CC(O)(C3CC3)C2)cnn1-c1nn2cccc2c(=O)[nH]1 [Q-0814] | 400 | 2 |
| Cc1c(C(=O)N2CCC(O)(c3ccccc3)CC2)cnn1-c1nc2c(c(=O)[nH]1)CCC2 [Q-0446] | 96 | 7 |
| Cc1cc(=O)[nH]c(-n2ncc(C(=O)NC3CCCC3)c2C(F)(F)F)n1 [Q-0334] | 49000 | 80 |
| Cc1c(C(=O)N2CC3CC(C2)C3(F)F)cnn1-c1nn2cccc2c(=O)[nH]1 [Q-0799] | 300 | 1 |
| Cc1c(C(=O)N2CCN3CCC[C@@H]3C2)cnn1-c1nc2ccsc2c(=O)[nH]1 [Q-0556] | 600 | 7 |
| Cc1c(C(=O)O)cnn1-c1nc2c(c(=O)[nH]1)CCC2 [Q-0481, 5-methyl-1-{4-oxo-3H,4H,5H,6H,7H-cyclopenta[d]pyrimidin-2-yl}-1H-pyrazole-4-carboxylic acid] | 95000 | 30 |
| Cc1c(C(=O)N2CCCC(Oc3ccccc3)C2)cnn1-c1nc2c(c(=O)[nH]1)CCC2 (stereo not shown) [Q-0468] | 200 | 7 |
| Cc1c(C(=O)N2CCC(C(F)(F)F)CC2)cnn1-c1cc(C(F)(F)F)cc(=O)[nH]1 [Q-0466, 6-{5-methyl-4-[4-(trifluoromethyl)piperidine-1-carbonyl]-1H-pyrazol-1-yl}-4-(trifluoromethyl)-1,2-dihydropyridin-2-one] | 59 | 1 |
| COC(=O)c1cnn(-c2nn3c(F)ccc3c(=O)[nH]2)c1C [Q-0619] | 300 | 3 |
| Cc1c(C(=O)N2CCC3(CCNC3=O)CC2)cnn1-c1nn2cccc2c(=O)[nH]1 [Q-0848] | 10000 | 2 |
| Cc1c(C(=O)N(CCC(F)(F)F)CC(F)(F)F)cnn1-c1nc2c(c(=O)[nH]1)CCC2 [Q-0435] | 1200 | 20 |
| CCCN(CCC)C(=O)c1cnn(-c2nc(C)cc(=O)[nH]2)c1C [Q-0351] | 4600 | 10 |
